Measured values as given in patent publication US5153128A, “Heat-resistant β-galactosyltransferase, its production process and its use” (Suntory Limited, priority 1990, dated 1992).

Target: T1, heat-resistant β-galactosyltransferase produced by Saccharopolyspora rectivirgula SAM 1400 (Saccharopolyspora rectivirgula, UniProt Q9ZBD1)
T1 construct: about 140 kDa by gel filtration
Assay: Inhibitors: residual activity of the enzyme in the presence of compounds (Table 3)
Type: biochemical
Conditions: enzyme in presence of the compound; compound concentration not given

T1 sequence (Q9ZBD1 entry or part of it, change not shown): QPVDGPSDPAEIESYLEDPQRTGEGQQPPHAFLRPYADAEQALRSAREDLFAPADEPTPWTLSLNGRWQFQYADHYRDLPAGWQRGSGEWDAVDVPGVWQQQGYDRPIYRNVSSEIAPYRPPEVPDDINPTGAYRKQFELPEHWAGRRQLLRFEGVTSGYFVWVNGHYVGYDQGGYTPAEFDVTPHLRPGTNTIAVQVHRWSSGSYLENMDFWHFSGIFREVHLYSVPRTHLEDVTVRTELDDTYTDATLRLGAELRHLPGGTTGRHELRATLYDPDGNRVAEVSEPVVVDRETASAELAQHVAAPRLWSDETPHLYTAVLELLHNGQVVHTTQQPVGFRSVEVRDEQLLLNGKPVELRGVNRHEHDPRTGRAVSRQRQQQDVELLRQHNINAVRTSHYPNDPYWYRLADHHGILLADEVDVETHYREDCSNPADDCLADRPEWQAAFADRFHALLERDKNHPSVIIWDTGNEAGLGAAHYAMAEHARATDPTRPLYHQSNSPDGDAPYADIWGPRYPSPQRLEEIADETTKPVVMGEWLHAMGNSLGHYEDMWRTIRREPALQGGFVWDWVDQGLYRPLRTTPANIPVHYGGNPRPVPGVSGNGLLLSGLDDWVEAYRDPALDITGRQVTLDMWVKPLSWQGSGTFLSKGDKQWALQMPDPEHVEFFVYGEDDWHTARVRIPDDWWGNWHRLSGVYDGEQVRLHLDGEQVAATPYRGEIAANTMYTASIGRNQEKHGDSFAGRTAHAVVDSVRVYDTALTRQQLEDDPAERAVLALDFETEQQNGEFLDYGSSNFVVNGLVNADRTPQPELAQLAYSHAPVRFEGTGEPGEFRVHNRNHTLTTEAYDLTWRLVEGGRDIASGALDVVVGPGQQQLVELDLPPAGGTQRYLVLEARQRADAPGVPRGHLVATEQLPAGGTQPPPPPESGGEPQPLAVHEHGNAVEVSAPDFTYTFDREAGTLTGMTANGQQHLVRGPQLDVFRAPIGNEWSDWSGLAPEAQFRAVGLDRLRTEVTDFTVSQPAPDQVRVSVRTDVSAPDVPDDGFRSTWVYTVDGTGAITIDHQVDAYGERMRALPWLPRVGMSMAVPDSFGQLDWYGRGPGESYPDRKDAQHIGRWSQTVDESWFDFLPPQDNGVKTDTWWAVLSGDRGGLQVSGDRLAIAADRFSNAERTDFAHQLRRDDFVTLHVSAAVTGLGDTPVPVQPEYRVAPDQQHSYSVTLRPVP

Residual activity: 96%
Structure (SMILES): OCCS [2-Mercaptoethanol]
